Data as given in paper PMC6199309, “A therapeutic approach to pantothenate kinase associated neurodegeneration” (Nature Communications, 2018).
Entries after “also recorded” stand apart in the source; their conditions may differ.

Columns and labels:
CSNK2A1 = molecular target: T1, CSNK2A1 (Homo sapiens, UniProt P68400); test: KINOMEscan; format: binding; settings: read-out: %Ctrl @ 10000nM
T1 construct: purchased DiscoverX KINOMEscan

p38-delta = molecular target: T2, p38-delta (Homo sapiens, UniProt O15264); test: KINOMEscan; format: binding; settings: read-out: %Ctrl @ 10000nM
T2 construct: purchased DiscoverX KINOMEscan

YSK1 = molecular target: T3, YSK1 (Homo sapiens, UniProt O00506); test: KINOMEscan; format: binding; settings: read-out: %Ctrl @ 10000nM
T3 construct: purchased DiscoverX scanMAX; host or cells: E. coli BL21-derived host (T7 phage) or HEK-293

CASK = molecular target: T4, CASK (Homo sapiens, UniProt O14936); test: KINOMEscan; format: binding; settings: read-out: %Ctrl @ 10000nM
T4 construct: purchased DiscoverX KINOMEscan

DAPK1 = molecular target: T5, DAPK1 (Homo sapiens, UniProt P53355); test: KINOMEscan; format: binding; settings: read-out: %Ctrl @ 10000nM
T5 construct: purchased DiscoverX KINOMEscan

[1] = molecular target: T6, ABL1(H396P)-nonphosphorylated (Homo sapiens, UniProt P00519, H396P); test: KINOMEscan; format: binding; settings: read-out: %Ctrl @ 10000nM
T6 construct: purchased DiscoverX KINOMEscan

SRPK2 = molecular target: T7, SRPK2 (Homo sapiens, UniProt P78362); test: KINOMEscan; format: binding; settings: read-out: %Ctrl @ 10000nM
T7 construct: purchased DiscoverX KINOMEscan

MINK = molecular target: T8, MINK (Homo sapiens, UniProt Q8N4C8); test: KINOMEscan; format: binding; settings: read-out: %Ctrl @ 10000nM
T8 construct: purchased DiscoverX KINOMEscan

PAK2 = molecular target: T9, PAK2 (Homo sapiens, UniProt Q13177); test: KINOMEscan; format: binding; settings: read-out: %Ctrl @ 10000nM
T9 construct: purchased DiscoverX KINOMEscan

ACVR1B = molecular target: T10, ACVR1B (Homo sapiens, UniProt P36896); test: KINOMEscan; format: binding; settings: read-out: %Ctrl @ 10000nM
T10 construct: purchased DiscoverX KINOMEscan

MYO3B = molecular target: T11, MYO3B (Homo sapiens, UniProt Q8WXR4); test: KINOMEscan; format: binding; settings: read-out: %Ctrl @ 10000nM
T11 construct: purchased DiscoverX KINOMEscan

WNK1 = molecular target: T12, WNK1 (Homo sapiens, UniProt Q9H4A3); test: KINOMEscan; format: binding; settings: read-out: %Ctrl @ 10000nM
T12 construct: DNA label for qPCR (T7 phage fusion or DNA tag); purchased DiscoverX scanMAX; host or cells: E. coli BL21-derived (T7 phage) or HEK-293

DLK = molecular target: T13, DLK (Homo sapiens, UniProt Q12852); test: KINOMEscan; format: binding; settings: read-out: %Ctrl @ 10000nM
T13 construct: purchased DiscoverX KINOMEscan

ERK8 = molecular target: T14, ERK8 (Homo sapiens, UniProt Q8TD08); test: KINOMEscan; format: binding; settings: read-out: %Ctrl @ 10000nM
T14 construct: purchased DiscoverX KINOMEscan

PIKFYVE = molecular target: T15, PIKFYVE (Homo sapiens, UniProt Q9Y2I7); test: KINOMEscan; format: binding; settings: read-out: %Ctrl @ 10000nM
T15 construct: purchased DiscoverX KINOMEscan

MLK2 = molecular target: T16, MLK2 (Homo sapiens, UniProt Q02779); test: KINOMEscan; format: binding; settings: read-out: %Ctrl @ 10000nM
T16 construct: purchased DiscoverX KINOMEscan

ALK(L1196M) = molecular target: T17, ALK(L1196M) (Homo sapiens, UniProt Q9UM73, L1196M); test: KINOMEscan; format: binding; settings: read-out: %Ctrl @ 10000nM
T17 construct: purchased DiscoverX KINOMEscan

[2] = molecular target: T18, RSK2(Kin.Dom.2-C-terminal) (Homo sapiens, UniProt P51812); test: KINOMEscan; format: binding; settings: read-out: %Ctrl @ 10000nM
T18 construct: RSK2(Kin.Dom.2-C-terminal); purchased DiscoverX KINOMEscan

Protein binding = settings: human
IKK-epsilon = molecular target: T19, IKK-epsilon (Homo sapiens, UniProt Q14164); test: KINOMEscan; format: binding; settings: read-out: %Ctrl @ 10000nM
T19 construct: purchased DiscoverX KINOMEscan

ACVRL1 = molecular target: T20, ACVRL1 (Homo sapiens, UniProt P37023); test: KINOMEscan; format: binding; settings: read-out: %Ctrl @ 10000nM
T20 construct: purchased DiscoverX KINOMEscan

PIK3C2G = molecular target: T21, PIK3C2G (Homo sapiens, UniProt O75747); test: KINOMEscan; format: binding; settings: read-out: %Ctrl @ 10000nM
T21 construct: purchased DiscoverX KINOMEscan

TESK1 = molecular target: T22, TESK1 (Homo sapiens, UniProt Q15569); test: KINOMEscan; format: binding; settings: read-out: %Ctrl @ 10000nM
T22 construct: purchased DiscoverX KINOMEscan

MST4 = molecular target: T23, MST4 (Homo sapiens, UniProt Q9P289); test: KINOMEscan; format: binding; settings: read-out: %Ctrl @ 10000nM
T23 construct: purchased DiscoverX KINOMEscan

PAK1 = molecular target: T24, PAK1 (Homo sapiens, UniProt Q13153); test: KINOMEscan; format: binding; settings: read-out: %Ctrl @ 10000nM
T24 construct: purchased DiscoverX KINOMEscan

[3] = molecular target: T25, ABL1(Q252H)-nonphosphorylated (Homo sapiens, UniProt P00519, Q252H); test: KINOMEscan; format: binding; settings: read-out: %Ctrl @ 10000nM
T25 construct: purchased DiscoverX KINOMEscan

LOK = molecular target: T26, LOK (Homo sapiens, UniProt O94804); test: KINOMEscan; format: binding; settings: read-out: %Ctrl @ 10000nM
T26 construct: purchased DiscoverX KINOMEscan

ANKK1 = molecular target: T27, ANKK1 (Homo sapiens, UniProt Q8NFD2); test: KINOMEscan; format: binding; settings: read-out: %Ctrl @ 10000nM
T27 construct: purchased DiscoverX KINOMEscan

MAP3K2 = molecular target: T28, MAP3K2 (Homo sapiens, UniProt Q9Y2U5); test: KINOMEscan; format: binding; settings: read-out: %Ctrl @ 10000nM
T28 construct: purchased DiscoverX KINOMEscan

PIP5K1C = molecular target: T29, PIP5K1C (Homo sapiens, UniProt O60331); test: KINOMEscan; format: binding; settings: read-out: %Ctrl @ 10000nM
T29 construct: purchased DiscoverX KINOMEscan

CLK3 = molecular target: T30, CLK3 (Homo sapiens, UniProt P49761); test: KINOMEscan; format: binding; settings: read-out: %Ctrl @ 10000nM
T30 construct: purchased DiscoverX KINOMEscan

MAPKAPK2 = molecular target: T31, MAPKAPK2 (Homo sapiens, UniProt P49137); test: KINOMEscan; format: binding; settings: read-out: %Ctrl @ 10000nM
T31 construct: purchased DiscoverX KINOMEscan

KIT(V559D,T670I) = molecular target: T32, KIT(V559D,T670I) (Homo sapiens, UniProt P10721, T670I/V559D); test: KINOMEscan; format: binding; settings: read-out: %Ctrl @ 10000nM
T32 construct: purchased DiscoverX KINOMEscan

PRKG1 = molecular target: T33, PRKG1 (Homo sapiens, UniProt Q13976); test: KINOMEscan; format: binding; settings: read-out: %Ctrl @ 10000nM
T33 construct: purchased DiscoverX KINOMEscan

EPHA5 = molecular target: T34, EPHA5 (Homo sapiens, UniProt P54756); test: KINOMEscan; format: binding; settings: read-out: %Ctrl @ 10000nM
T34 construct: purchased DiscoverX KINOMEscan

468 human kinases = test: KINOMEscan scanMAX panel; format: binding
DYRK1B = molecular target: T35, DYRK1B (Homo sapiens, UniProt Q9Y463); test: KINOMEscan; format: binding; settings: read-out: %Ctrl @ 10000nM
T35 construct: purchased DiscoverX KINOMEscan

FLT3(N841I) = molecular target: T36, FLT3(N841I) (Homo sapiens, UniProt P36888, N841I); test: KINOMEscan; format: binding; settings: read-out: %Ctrl @ 10000nM
T36 construct: purchased DiscoverX KINOMEscan

KIT(D816V) = molecular target: T37, KIT(D816V) (Homo sapiens, UniProt P10721, D816V); test: KINOMEscan; format: binding; settings: read-out: %Ctrl @ 10000nM
T37 construct: purchased DiscoverX KINOMEscan

ERBB3 = molecular target: T38, ERBB3 (Homo sapiens, UniProt P21860); test: KINOMEscan; format: binding; settings: read-out: %Ctrl @ 10000nM
T38 construct: purchased DiscoverX KINOMEscan

ULK3 = molecular target: T39, ULK3 (Homo sapiens, UniProt Q6PHR2); test: KINOMEscan; format: binding; settings: read-out: %Ctrl @ 10000nM
T39 construct: DNA label for qPCR (T7 phage fusion or DNA tag); purchased DiscoverX scanMAX; host or cells: E. coli BL21-derived (T7 phage) or HEK-293

[4] = 10000 nM, 403 non-mutant kinases

T22 sequence (Q15569 whole entry): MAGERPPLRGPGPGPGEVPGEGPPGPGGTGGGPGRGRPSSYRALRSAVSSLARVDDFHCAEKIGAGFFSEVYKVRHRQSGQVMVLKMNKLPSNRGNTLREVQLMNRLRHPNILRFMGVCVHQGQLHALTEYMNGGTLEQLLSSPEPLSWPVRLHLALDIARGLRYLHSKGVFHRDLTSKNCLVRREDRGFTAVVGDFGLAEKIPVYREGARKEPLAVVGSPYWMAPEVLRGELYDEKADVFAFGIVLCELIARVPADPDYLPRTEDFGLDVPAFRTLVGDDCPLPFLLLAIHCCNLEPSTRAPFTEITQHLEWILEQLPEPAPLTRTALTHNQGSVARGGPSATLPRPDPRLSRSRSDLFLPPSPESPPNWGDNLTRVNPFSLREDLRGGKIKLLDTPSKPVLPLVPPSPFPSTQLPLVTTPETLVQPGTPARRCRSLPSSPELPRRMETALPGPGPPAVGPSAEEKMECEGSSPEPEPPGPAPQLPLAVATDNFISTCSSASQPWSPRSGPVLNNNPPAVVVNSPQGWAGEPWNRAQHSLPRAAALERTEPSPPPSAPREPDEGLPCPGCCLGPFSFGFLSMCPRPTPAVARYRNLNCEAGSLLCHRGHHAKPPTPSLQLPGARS
T3 sequence (O00506 whole entry): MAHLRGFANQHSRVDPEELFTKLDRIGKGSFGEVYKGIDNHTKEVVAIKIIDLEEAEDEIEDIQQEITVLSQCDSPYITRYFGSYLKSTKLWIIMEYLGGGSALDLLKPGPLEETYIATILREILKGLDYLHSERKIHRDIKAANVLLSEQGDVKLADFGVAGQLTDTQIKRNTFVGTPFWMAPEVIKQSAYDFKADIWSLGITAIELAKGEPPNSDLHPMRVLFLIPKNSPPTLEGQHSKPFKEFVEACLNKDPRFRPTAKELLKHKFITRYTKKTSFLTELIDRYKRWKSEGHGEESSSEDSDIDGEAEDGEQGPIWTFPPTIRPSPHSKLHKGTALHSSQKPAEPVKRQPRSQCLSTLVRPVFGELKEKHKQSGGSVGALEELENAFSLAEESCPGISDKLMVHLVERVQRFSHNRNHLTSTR
T29 sequence (O60331 whole entry): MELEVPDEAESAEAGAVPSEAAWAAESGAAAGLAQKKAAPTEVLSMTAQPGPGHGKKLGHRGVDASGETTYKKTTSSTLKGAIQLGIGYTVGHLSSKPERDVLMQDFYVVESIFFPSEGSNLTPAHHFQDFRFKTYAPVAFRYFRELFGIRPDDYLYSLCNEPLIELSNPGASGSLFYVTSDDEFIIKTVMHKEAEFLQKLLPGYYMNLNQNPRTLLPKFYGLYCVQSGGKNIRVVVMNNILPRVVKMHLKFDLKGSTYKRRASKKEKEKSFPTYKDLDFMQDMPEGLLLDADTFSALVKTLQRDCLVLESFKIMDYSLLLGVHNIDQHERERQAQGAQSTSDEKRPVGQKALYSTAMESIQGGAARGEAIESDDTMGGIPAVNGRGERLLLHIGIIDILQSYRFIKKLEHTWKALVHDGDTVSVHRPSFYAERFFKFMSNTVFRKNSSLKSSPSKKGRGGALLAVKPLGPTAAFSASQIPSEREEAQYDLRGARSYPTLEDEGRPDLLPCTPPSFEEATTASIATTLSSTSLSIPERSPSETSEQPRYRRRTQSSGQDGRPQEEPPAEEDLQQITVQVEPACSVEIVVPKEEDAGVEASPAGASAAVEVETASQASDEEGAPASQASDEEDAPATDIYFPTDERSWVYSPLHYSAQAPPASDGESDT
T34 sequence (P54756 25-1037): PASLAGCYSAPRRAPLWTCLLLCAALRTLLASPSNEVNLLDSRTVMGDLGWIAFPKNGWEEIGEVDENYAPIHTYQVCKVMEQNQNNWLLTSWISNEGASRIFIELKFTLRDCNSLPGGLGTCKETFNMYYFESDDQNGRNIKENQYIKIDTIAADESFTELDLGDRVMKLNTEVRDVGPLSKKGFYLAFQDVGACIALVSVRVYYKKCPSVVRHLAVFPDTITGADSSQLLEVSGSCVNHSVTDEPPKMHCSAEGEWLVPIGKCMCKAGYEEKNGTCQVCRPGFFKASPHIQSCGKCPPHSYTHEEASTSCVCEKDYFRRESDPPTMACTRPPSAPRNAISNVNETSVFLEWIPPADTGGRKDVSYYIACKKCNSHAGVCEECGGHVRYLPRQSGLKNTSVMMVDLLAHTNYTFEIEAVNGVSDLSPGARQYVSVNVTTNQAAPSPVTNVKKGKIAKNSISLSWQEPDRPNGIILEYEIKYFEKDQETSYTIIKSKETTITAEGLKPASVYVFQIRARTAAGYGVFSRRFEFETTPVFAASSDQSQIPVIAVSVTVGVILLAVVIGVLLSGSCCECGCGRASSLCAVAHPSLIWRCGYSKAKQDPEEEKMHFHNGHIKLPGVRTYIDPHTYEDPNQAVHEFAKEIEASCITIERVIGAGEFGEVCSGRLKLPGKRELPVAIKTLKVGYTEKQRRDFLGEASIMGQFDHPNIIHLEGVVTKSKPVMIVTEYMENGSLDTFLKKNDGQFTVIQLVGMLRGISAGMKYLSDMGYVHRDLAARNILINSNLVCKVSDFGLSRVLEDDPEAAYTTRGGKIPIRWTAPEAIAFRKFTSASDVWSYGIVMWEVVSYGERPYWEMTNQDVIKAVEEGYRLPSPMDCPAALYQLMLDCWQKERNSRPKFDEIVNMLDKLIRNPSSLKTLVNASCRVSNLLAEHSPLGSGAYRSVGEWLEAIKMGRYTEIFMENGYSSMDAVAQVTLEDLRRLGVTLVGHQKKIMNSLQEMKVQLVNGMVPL
T9 sequence (Q13177 whole entry): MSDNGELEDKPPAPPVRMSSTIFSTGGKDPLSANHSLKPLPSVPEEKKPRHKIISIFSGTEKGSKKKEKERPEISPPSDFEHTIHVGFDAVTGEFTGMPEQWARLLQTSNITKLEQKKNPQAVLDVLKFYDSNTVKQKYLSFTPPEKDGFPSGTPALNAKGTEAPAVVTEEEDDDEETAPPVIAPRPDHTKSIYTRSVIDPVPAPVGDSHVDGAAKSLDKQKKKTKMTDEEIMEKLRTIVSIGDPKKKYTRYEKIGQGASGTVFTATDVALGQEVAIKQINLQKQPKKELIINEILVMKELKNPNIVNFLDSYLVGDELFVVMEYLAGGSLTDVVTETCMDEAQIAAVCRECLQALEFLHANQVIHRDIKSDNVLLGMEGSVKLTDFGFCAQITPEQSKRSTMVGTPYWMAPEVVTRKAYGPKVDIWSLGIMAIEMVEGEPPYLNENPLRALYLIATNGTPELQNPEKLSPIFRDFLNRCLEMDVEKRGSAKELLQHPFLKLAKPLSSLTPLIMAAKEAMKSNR
T37 sequence (P10721 26-976 D816V): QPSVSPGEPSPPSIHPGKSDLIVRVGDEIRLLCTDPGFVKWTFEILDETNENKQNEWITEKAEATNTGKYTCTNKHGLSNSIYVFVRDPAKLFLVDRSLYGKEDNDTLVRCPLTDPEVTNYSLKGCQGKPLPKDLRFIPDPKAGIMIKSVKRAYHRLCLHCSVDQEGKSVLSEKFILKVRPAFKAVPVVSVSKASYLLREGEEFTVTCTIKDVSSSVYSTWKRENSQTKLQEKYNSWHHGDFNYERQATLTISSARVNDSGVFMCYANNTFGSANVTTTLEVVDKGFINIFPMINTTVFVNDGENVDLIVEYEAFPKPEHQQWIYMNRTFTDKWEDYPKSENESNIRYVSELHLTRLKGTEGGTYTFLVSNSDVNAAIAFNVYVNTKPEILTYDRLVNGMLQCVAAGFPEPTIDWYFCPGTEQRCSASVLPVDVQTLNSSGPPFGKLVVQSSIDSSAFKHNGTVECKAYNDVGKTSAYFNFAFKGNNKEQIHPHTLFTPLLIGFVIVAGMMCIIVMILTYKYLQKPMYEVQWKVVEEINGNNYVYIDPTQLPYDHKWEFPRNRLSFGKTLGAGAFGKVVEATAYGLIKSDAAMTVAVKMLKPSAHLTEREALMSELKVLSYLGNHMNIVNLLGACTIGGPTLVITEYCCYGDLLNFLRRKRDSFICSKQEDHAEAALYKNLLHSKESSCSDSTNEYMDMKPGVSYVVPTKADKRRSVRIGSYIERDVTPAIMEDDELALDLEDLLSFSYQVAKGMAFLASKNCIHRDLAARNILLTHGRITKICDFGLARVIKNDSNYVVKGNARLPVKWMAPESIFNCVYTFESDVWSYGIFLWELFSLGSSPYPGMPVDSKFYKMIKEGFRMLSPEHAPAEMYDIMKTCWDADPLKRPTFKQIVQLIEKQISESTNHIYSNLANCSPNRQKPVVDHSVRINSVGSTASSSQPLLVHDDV
T1 sequence (P68400 whole entry): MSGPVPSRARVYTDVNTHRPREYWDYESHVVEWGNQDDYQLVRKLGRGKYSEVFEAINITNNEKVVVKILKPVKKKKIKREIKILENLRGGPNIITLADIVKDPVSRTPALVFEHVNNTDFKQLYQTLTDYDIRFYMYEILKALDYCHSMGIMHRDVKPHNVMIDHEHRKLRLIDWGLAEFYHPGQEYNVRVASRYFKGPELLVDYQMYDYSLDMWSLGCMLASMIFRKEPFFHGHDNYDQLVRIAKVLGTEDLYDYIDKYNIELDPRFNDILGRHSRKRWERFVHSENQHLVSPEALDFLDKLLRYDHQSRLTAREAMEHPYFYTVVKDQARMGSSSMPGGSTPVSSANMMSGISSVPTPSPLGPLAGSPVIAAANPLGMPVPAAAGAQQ
T23 sequence (Q9P289 whole entry): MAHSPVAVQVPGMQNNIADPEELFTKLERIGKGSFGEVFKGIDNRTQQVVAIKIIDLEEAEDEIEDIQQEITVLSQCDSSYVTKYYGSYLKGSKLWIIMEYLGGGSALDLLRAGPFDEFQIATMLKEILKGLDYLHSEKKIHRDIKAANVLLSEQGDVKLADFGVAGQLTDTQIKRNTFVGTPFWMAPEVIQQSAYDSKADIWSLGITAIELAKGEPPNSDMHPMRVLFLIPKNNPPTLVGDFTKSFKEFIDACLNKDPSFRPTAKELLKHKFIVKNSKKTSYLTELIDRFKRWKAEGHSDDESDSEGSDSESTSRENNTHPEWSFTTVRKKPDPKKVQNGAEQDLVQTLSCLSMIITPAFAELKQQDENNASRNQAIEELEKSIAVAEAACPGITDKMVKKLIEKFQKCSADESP

`CC(C)c1ccc(CC(=O)N2CCN(c3ccc(C#N)nn3)CC2)cc1` [PZ-2891, 6-(4-(2-(4-isopropylphenyl)acetyl)piperazin-1-yl)pyridazine-3-carbonitrile] gave a remaining binding at 10 µM (CSNK2A1) of 82%, a remaining binding at 10 µM (p38-delta) of 76% and a remaining binding at 10 µM (YSK1) of 100%. For the same compound, the remaining binding at 10 µM (CASK) was 85%, the remaining binding at 10 µM (DAPK1) was 63% and the remaining binding at 10 µM [1] was 74%. For the same compound, the remaining binding at 10 µM (SRPK2) was 97%, the remaining binding at 10 µM (MINK) was 74% and the remaining binding at 10 µM (PAK2) was 44%. The remaining binding at 10 µM (ACVR1B) was 97%, the remaining binding at 10 µM (MYO3B) was 88% and the remaining binding at 10 µM (WNK1) was 100%. The remaining binding at 10 µM (DLK) was 100%, the remaining binding at 10 µM (ERK8) was 81% and the remaining binding at 10 µM (PIKFYVE) was 72%. It also gave a remaining binding at 10 µM (MLK2) of 72%, a remaining binding at 10 µM (ALK(L1196M)) of 73% and a remaining binding at 10 µM [2] of 89%. It also gave a fraction unbound (Protein binding) of 0.07, a remaining binding at 10 µM (IKK-epsilon) of 89% and a remaining binding at 10 µM (ACVRL1) of 100%. For the same compound, the remaining binding at 10 µM (PIK3C2G) was 61%, the remaining binding at 10 µM (TESK1) was 86% and the remaining binding at 10 µM (MST4) was 91%. The remaining binding at 10 µM (PAK1) was 76%, the remaining binding at 10 µM [3] was 97% and the remaining binding at 10 µM (LOK) was 86%. For the same compound, the remaining binding at 10 µM (ANKK1) was 78%, the remaining binding at 10 µM (MAP3K2) was 96% and the remaining binding at 10 µM (PIP5K1C) was 100%. The remaining binding at 10 µM (CLK3) was 93%, the remaining binding at 10 µM (MAPKAPK2) was 88% and the remaining binding at 10 µM (KIT(V559D,T670I)) was 94%. For the same compound, the remaining binding at 10 µM (PRKG1) was 99%, the remaining binding at 10 µM (EPHA5) was 88% and the “inhibitory activity in screen of 468 kinases” value (468 human kinases; 10 μM) was “did not exhibit off-target inhibition; also recorded: did not have significant inhibitory activity”. The “Number of Hits S(1)” value (468 human kinases; [4]) was 1, the “Number of Hits S(10)” value (468 human kinases; [4]) was 2 and the “Number of Hits S(35)” value (468 human kinases; [4]) was 2. The remaining binding at 10 µM (DYRK1B) was 66%, the remaining binding at 10 µM (FLT3(N841I)) was 86% and the remaining binding at 10 µM (KIT(D816V)) was 92%. The remaining binding at 10 µM (ERBB3) was 60% and the remaining binding at 10 µM (ULK3) was 89%.
